# Laboratory results reported in patent US20250154212A1, “METHOD OF DISRUPTING MEMORY AND LIPOPEPTIDE FOR USE IN SUCH METHOD” (The Research Foundation for The State University of New York, priority 2023, published 2025).
# Where no end group is shown, it is not given here. The star is where a group is joined. Myristoyl = CCCCCCCCCCCCCC(=O)*
# Biological target: T1, KIBRA-PKCι/λ interaction (Homo sapiens, UniProt P41743)
# T1 construct: expressed in transfected cells; host or cells: HEK293T
# T1 sequence (P41743 10-596): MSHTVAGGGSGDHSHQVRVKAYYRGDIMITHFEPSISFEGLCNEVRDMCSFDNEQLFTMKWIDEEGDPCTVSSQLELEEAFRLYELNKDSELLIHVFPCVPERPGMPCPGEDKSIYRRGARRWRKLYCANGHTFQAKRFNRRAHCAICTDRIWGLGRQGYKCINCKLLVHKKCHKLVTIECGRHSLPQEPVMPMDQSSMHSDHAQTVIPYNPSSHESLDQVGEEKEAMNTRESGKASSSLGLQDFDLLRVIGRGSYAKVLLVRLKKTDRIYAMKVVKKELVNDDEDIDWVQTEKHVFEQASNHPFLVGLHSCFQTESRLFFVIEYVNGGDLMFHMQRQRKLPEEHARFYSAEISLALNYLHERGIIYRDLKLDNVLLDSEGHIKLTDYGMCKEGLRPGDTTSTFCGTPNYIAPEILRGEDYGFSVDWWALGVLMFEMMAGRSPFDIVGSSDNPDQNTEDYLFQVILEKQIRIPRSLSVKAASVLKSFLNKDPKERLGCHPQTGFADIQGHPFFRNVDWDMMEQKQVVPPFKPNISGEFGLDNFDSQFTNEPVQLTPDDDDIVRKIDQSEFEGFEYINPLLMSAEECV
# Assay: BiFC assay of KIBRA-PKCι/λ interaction in HEK293T cells
# Type: cell-based
# Conditions: 10 μM
# Procedure: KIBRA-PKMζ BiFC was performed as previously described (28), using pVen1-FLAG-KIBRA and pVen2-HA-PKMζ, in which PKMζ was cloned between EcoR1 and BamH1 sites. The constructs pVen1 and pVen2 encode the N-terminus (amino acids 1-154) and C-terminus (amino acids 155-238) of the Venus protein, respectively, and the Venus fragments were on the N-terminal of the fusion proteins. pVen2-HA-PKMζ[PKCι/λ-P291Q;F297S] was generated by site-directed mutagenesis using forward-cctggagAagcAAatceggatcccccggtCcctgtccgte and reverse-gacggacaggGaccgggggatccggatTTgctTctccagg primers and the QuickChange II XL Site-Directed Mutagenesis Kit (Agilent Technologies), following manufacturer's instructions. Additional pVen2-HA-PKC isoforms and pVen2-HA-CaMKIIα in the pVen2-HA vector were generated by cloning the N-terminus of the coding sequence of each kinase (table S1) to obtain an in-frame fusion at the C-terminus of the pVen2-HA. Human versions of KIBRA and kinases were used, and all PCR amplified sequences and constructs were verified by DNA sequencing.
# HEK293T cells were cultured in Dulbecco's Modified Eagle's Medium supplemented with 10% heat-inactivated fetal bovine serum, 100 U/ml penicillin, […] streptomycin, 2 mM glutamine, and 10 mM HEPES in a T75 tissue culture flask with canted neck and ventilated cap. Twenty-four hours prior to transfection, 1×10^5 HEK293T cells in 1 ml of media were plated on poly-D-lysine-treated coverslips in 24-well plates. One hour prior to transfection, 0.5 ml of the media was removed from each well, and ζ-stat or K-ZAP was added to the media that had been removed. The remaining media in each well was then discarded and substituted with the 0.5 ml pre-conditioned media containing ζ-stat or K-ZAP at designated concentrations. For transfection a total of 50 ng of DNA was delivered to each well using Lipofectamine 3000 (Invitrogen) and OptiMEM 1× reduced serum medium (Invitrogen) at a plasmid-to-plasmid ratio of 1:1. The amount of transfected DNA was optimized to produce relatively low concentrations of proteins during overexpression. […]
Compound,effect on KIBRA-PKCι/λ interaction (BiFC) (listed as C-stat),effect on KIBRA-PKCι/λ interaction (BiFC) (listed as z-stat),effect on KIBRA-PKCι/λ interaction (BiFC)
"O=S(=O)(O)c1cc(O)c2c(S(=O)(=O)O)cc(S(=O)(=O)O)cc2c1 [ζ-stat, 1-naphthol-3,6,8-trisulphonic acid]",no measurable effect,has no effects,–
myr-N-FVRNSLERRSVRMKRPS-C (Myristoyl-FVRNSLERRSVRMKRPS) [K-ZAP],–,–,not measurably affected
